Data on one molecule can be found in patent US20250057808A1, “COMPOSITION COMPRISING BETA LACTAM FOR TREATING ALCOHOL DEPENDENCE AND ALCOHOL ASSOCIATED DISEASES OR CONDITIONS” (Temple University of the Commonwealth System of Higher …, priority 2023, published 2025).

Structures are written as SMILES. “Also recorded” adds a separate entry of the source.

The test system of one data set is xCT. Put plainly: Western blot xCT expression in NAc-core, NAc-shell and liver (50 mg/kg study). The class given is in vivo, P rats. The conditions noted are these: MC-100093 50 mg/kg or ceftriaxone 200 mg/kg i.p. 5 days; for Protein expression of xCT in the NAc-shell: vs Ethanol group. As for the experimental part:
We used micro-punch procedure to dissect the subregions of the NAc such as NAc-core and NAc-shell as well as the subregions of prefrontal cortex such as infralimbic (IL) and prelimbic (PL) from the brain on day 6 after the last injection day. P rats were removed from the cage and rapidly euthanized by CO2 inhalation followed by rapid decapitation with a guillotine. Brains were isolated and immediately frozen on dry ice and stored at −80° C. The stereotaxic coordinates provided by Paxinos and colleague's rat brain stereotactic atlas was used to isolate NAc-core and NAc-shell using a cryostat apparatus (−20° C.), which then kept at −80° C. for later western blot analyses.
Western Blot assay was performed to measure changes in the expression of GLT-1, xCT, mGluR1, mGluR5, PPAR-α, PPARγ, GAPDH and β-tubulin in the NAc-core and NAc-shell as described in previous publications. A lysis buffer containing protease and phosphatase inhibitors was used to generate a homogenate of liver, Nac-core, and Nac-shell samples. The amount of protein was quantified using a detergent compatible protein assay (Bio-Rad, Hercules, CA, USA) for each sample. Samples were mixed with laemmli dye and loaded with equal amounts on polyacrylamide gels (10%), which separated the proteins using electrophoresis. After that, polyvinylidene difluoride (PVDF) membranes were used to transfer the proteins electrophoretically from the gels. Membranes were incubated in 5% free-fat milk in Tris-buffered saline with Tween-20 (TBST) for 30-60 minutes at room temperature. Membranes were then incubated with appropriate primary antibodies overnight at 4° C.: rabbit anti-GLT-1 (1:5000, Abcam, ab41621), rabbit anti-xCT (1:2000, Abcam, ab175186), rabbit anti-mGluR1 (1:1000, Abcam, ab82211), rabbit anti-mGluR5 (1:1000, Abcam, ab76316), rabbit anti-PPAR-α (1:1000, Abcam, ab24509), and rabbit anti-PPARγ (1:1000, Abcam, ab209350). Mouse anti-β-tubulin (1:1000; BioLegend) was used as a loading control antibody for the brain samples and rabbit anti-GAPDH (1:5000; cell signaling) was used as a loading control antibody for the liver samples. Membranes were washed five times on the next day with TBST followed by incubation with appropriate secondary antibody (1:5000) for 90 minutes at room temperature. Chemiluminescent reagents (Super Signal West Pico, Pierce Inc.) were used to detect the proteins using a GeneSys imaging system to develop the digitized blot images. Water-control group data were represented as 100% and all other values were expressed relative to control group to detect changes in the expression of the protein of interest in the brain and liver samples.
All statistical analyses were conducted with Graphpad Prism software, with p-values of 0.05 or less being statistically significant. We performed a two-way (mixed model) ANOVA followed by Bonferroni multiple comparison post-hoc test to analyze 24 h ethanol consumption, 24 h water consumption, and daily body weight. For the Western blot and oil red O staining analysis, we performed one-way ANOVA with Newman-Keuls as a post hoc multiple comparison test to measure differences between groups as a percentage (relative to control values).

Another data set relates to PPAR-γ. In words: Western blot PPAR-γ expression in liver. It counts as in vivo, P rats. The conditions noted are these: MC-100093 50 mg/kg or ceftriaxone 200 mg/kg i.p. 5 days; between all groups. On the procedure:
Western Blot assay was performed to measure changes in the expression of GLT-1, xCT, mGluR1, mGluR5, PPAR-α, PPARγ, GAPDH and β-tubulin in the NAc-core and NAc-shell as described in previous publications. A lysis buffer containing protease and phosphatase inhibitors was used to generate a homogenate of liver, Nac-core, and Nac-shell samples. The amount of protein was quantified using a detergent compatible protein assay (Bio-Rad, Hercules, CA, USA) for each sample. Samples were mixed with laemmli dye and loaded with equal amounts on polyacrylamide gels (10%), which separated the proteins using electrophoresis. After that, polyvinylidene difluoride (PVDF) membranes were used to transfer the proteins electrophoretically from the gels. Membranes were incubated in 5% free-fat milk in Tris-buffered saline with Tween-20 (TBST) for 30-60 minutes at room temperature. Membranes were then incubated with appropriate primary antibodies overnight at 4° C.: rabbit anti-GLT-1 (1:5000, Abcam, ab41621), rabbit anti-xCT (1:2000, Abcam, ab175186), rabbit anti-mGluR1 (1:1000, Abcam, ab82211), rabbit anti-mGluR5 (1:1000, Abcam, ab76316), rabbit anti-PPAR-α (1:1000, Abcam, ab24509), and rabbit anti-PPARγ (1:1000, Abcam, ab209350). […]
(In general: In western blotting, separated proteins are transferred to a membrane and probed.)

Data set [1] is described as follows: Ethanol-intake model (section C). The class given is in vivo, Male P rats. As for the experimental part: Male P rats were obtained from Indiana University School of Medicine (Indianapolis, IN, USA). P rats were ˜90 days old at the beginning of the drinking paradigms. P rats were used in this study as they fit the necessary criteria of ethanol preference. P rats may consume freely ethanol (15% and 30%, v/v) and achieve a pharmacologically blood alcohol concentration (BACs) of 50-200 mg % as shown in previous studies from Indiana University. Rats were housed in a room kept at 21° C. on a 12/12-hour light/dark cycle and had free access to water and food. All experimental procedures were approved by the Institutional Animal Care and Use Committee (IACUC) at University of Toledo under protocol #400160, in accordance with all guidelines of IACUC of the National Institute of Health, and the Guide for the Care and Use of Laboratory Animals.
Rats were assigned to three groups prior to the start of the experiments based on their weights, and the average weights of each group were similar between all groups. Male P rats were divided into three groups: a) Control/water group was exposed to water for five weeks and received saline vehicle injection (i.p.) every 24 hours during Week 6 for a total of five days; b) Ethanol/saline group was exposed to free choice of ethanol (15% and 30%, v/v) as well as water for 5 weeks and received saline vehicle (i.p.) every 24 hours during Week 6 for a total of five days; c) Ethanol/MC-100093 group was exposed to free choice of ethanol (15% and 30%, v/v) as well as water for 5 weeks and received MC-100093 (100 mg/kg, i.p.) every 24 hours during Week 6 for 5 days (FIG. 16). […]
The baseline was calculated by taking the average of the prior 5 weeks of water and ethanol consumption as rat weight. […] As weights of the bottles were recorded, the measurements were converted using g of ethanol intake/kg of body weight/day formula to determine ethanol consumption in g/kg of body weight. […]
Statistical analyses were performed using GraphPad Prism Version 10. […] Statistical significance was determined by a p-value of or less than 0.05.

For data set [2] the following is noted: human liver microsomes in vitro; cited from earlier work. (In general: Microsomes from liver hold many membrane-bound enzymes, among them those of drug oxidation.)
A further data set deals with GLT-1. The conditions noted are these: cited from earlier work.

Turning to `C[C@@H](O)[C@H]1C(=O)N[C@@H]1[C@@H](C)C(=O)N1CCN(C)CC1` [MC-100093], in the data set on xCT (among all groups), the “Protein expression of xCT in the NAc-core” value was “non-significant difference; also recorded: no significant difference”. In addition, in the data set on xCT (between all groups), the “Protein expression of xCT in the liver” value is recorded as “no significant differences”. Also, the “Protein expression of xCT in the NAc-shell” value in the data set on xCT was “significantly higher level of xCT; also recorded: normalized GLT-1 and xCT levels in the NAc-shell”; in the data set with xCT (listed as MC-100095), “significantly increased xCT expression”. Besides, the “Protein expression of PPAR-γ in the liver” value with PPAR-γ was “not changed significantly”. For the same molecule, in data set [1] (male P rats exposed to ethanol, 100 mg/kg i.p., day 5, 100 mg/kg), the Water intake result is listed as “significant increase in water intake; also recorded: drank significantly more water than the ethanol/saline group”. Moreover, the Body weight result in data set [1] (male P rats, 100 mg/kg i.p. 5 days) is recorded as “no significant effect of Treatment by Day interaction on body weight”. The Ethanol intake entry in data set [1] (male P rats, 100 mg/kg i.p. days 1-5 of Week 6, vs saline vehicle, 100 mg/kg) is given as “reduced ethanol intake after 5-week drinking regimen; also recorded: significant decrease in ethanol intake; also recorded: reduced ethanol intake in P rats staring 24 hours after the first injection of the drug through the five days regimen; also recorded: robust effect in ethanol intake”. The “Stability in liver microsomes” value in data set [2] is recorded as “high stability”. Further, in the data set with GLT-1, the GLT-1 upregulatory properties entry was “potent GLT-1 upregulator; also recorded: enhanced GLT-1 upregulatory properties compared to ceftriaxone”.
